{"source": "ChEMBL document CHEMBL2439984", "about": "“Design, synthesis, and bioevaluation of viral 3C and 3C-like protease inhibitors” (Bioorg Med Chem Lett, 2013)", "key": {"Norwalk virus": {"test_system": "Norwalk virus", "test": "Antiviral activity against Norwalk virus infected in human HG23 cells", "type": "functional, cell-based"}, "[1]": {"molecular_target": "Prothrombin (Homo sapiens) (UniProt P00734)", "test": "Inhibition of thrombin (unknown origin) using N-p-tosyl-Gly-Pro-Lys-pNa as substrate up to 10 uM preincubated for 30 mins prior to substrate addition measured for 120 seconds by spectrophotometric analysis"}, "Trypsin (Homo sapiens)": {"molecular_target": "Trypsin (Homo sapiens) (UniProt P07477+P07478+P35030)", "test": "Inhibition of trypsin (unknown origin) using BAPNA as substrate up to 10 uM preincubated for 10 mins prior to substrate addition measured for 300 seconds by spectrophotometric analysis", "type": "protein assay"}, "Homo sapiens": {"species_on_record": "Homo sapiens", "test": "Inhibition of alpha-chymotrypsin (unknown origin) using Suc-Ala-Ala-Pro-Phe as substrate up to 10 uM preincubated for 10 mins prior to substrate addition measured for 60 seconds by spectrophotometric analysis"}, "[2]": {"molecular_target": "T1, Neutrophil elastase (Homo sapiens) (UniProt P08246)", "T1 sequence (whole entry)": "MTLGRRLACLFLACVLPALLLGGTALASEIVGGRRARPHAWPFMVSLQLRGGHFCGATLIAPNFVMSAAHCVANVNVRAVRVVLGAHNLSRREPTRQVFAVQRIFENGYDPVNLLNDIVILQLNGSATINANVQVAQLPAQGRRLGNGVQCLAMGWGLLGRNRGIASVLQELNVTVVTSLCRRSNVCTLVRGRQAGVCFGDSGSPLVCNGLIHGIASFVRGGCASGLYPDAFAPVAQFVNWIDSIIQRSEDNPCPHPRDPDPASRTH", "test": "Inhibition of human neutrophil elastase using MeO-Suc-Ala-Ala-Pro-Val-pNa as substrate up to 10 uM preincubated for 30 mins prior to substrate addition measured for 120 seconds by spectrophotometric analysis"}, "[3]": {"test": "Cytotoxicity against human HG23 cells after 72 hrs by crystal violet staining-based assay", "type": "cell-based"}, "Human coronavirus 229E": {"test_system": "Human coronavirus 229E", "test": "Antiviral activity against Coronavirus 229E infected in human […] cells", "type": "functional, organism-based"}, "[4]": {"test": "Antiviral activity against Human rhinovirus 18 infected in human […] cells", "type": "functional, cell-based, Human rhinovirus A18", "settings": "Rhinovirus A"}, "[5]": {"test": "Antiviral activity against Murine norovirus 1 infected in human […] cells", "type": "functional, cell-based", "settings": "Norwalk virus"}, "[6]": {"molecular_target": "Replicase polyprotein 1ab (Severe acute respiratory syndrome-related coronavirus, UniProt P0C6X7)", "test": "Inhibition of SARS coronavirus 3C-like protease by FRET assay"}, "[7]": {"test": "Inhibition of Human rhinovirus sp. […] protease by FRET assay"}, "[8]": {"test": "Inhibition of Norovirus MD145 protease 3C by FRET assay"}, "[9]": {"test": "Inhibition of SARS coronavirus protease 3C by FRET assay", "design": "species or system Severe acute respiratory syndrome-related coronavirus"}}, "note": "Active and inactive are the calls of the source. The calls are words filed in the database; no cut-off is given here.", "data": [{"smiles": "CC(C)C[C@H](NC(=O)[C@H](Cc1ccc2ccccc2c1)NC(=O)OCc1ccccc1)C(=O)N[C@H](C=O)C[C@@H]1CCNC1=O", "values": [{"measurement": "EC50", "setting": "Norwalk virus", "value": 80, "unit": "nM"}]}, {"smiles": "CC(C)C[C@H](NC(=O)[C@H](Cc1cccc2ccccc12)NC(=O)OCc1ccccc1)C(=O)N[C@H](C=O)C[C@@H]1CCNC1=O", "values": [{"measurement": "inhibition", "setting": "[1]", "value": "inactive"}, {"measurement": "inhibition", "setting": "Trypsin (Homo sapiens)", "value": "inactive"}, {"measurement": "inhibition", "setting": "Homo sapiens", "value": "inactive"}, {"measurement": "inhibition", "setting": "[2]", "value": "inactive"}, {"measurement": "CC50 at 72 h", "setting": "[3]", "value": 87000, "unit": "nM"}, {"measurement": "EC50", "setting": "Human coronavirus 229E", "value": 200, "unit": "nM"}, {"measurement": "EC50", "setting": "[4]", "value": 15, "unit": "nM"}, {"measurement": "EC50", "setting": "[5]", "value": 600, "unit": "nM"}, {"measurement": "IC50", "setting": "[6]", "value": 230, "unit": "nM"}, {"measurement": "IC50", "setting": "[7]", "value": 150, "unit": "nM"}, {"measurement": "IC50", "setting": "[8]", "value": 510, "unit": "nM"}, {"measurement": "EC50", "setting": "Norwalk virus", "value": 40, "unit": "nM"}]}, {"smiles": "CC(C)C[C@H](NC(=O)[C@H](Cc1ccc(-c2ccccc2)cc1)NC(=O)OCc1ccccc1)C(=O)N[C@H](C=O)C[C@@H]1CCNC1=O", "values": [{"measurement": "EC50", "setting": "Norwalk virus", "value": 50, "unit": "nM"}]}, {"smiles": "CC(C)C[C@H](NC(=O)[C@H](Cc1cccc2ccccc12)NC(=O)OCc1ccccc1)C(=O)N[C@@H](C[C@@H]1CCNC1=O)C(=O)C(=O)NC(C)C", "values": [{"measurement": "CC50 at 72 h", "setting": "[3]", "value": "> 100000", "unit": "nM"}, {"measurement": "EC50", "setting": "Human coronavirus 229E", "value": 500, "unit": "nM"}, {"measurement": "EC50", "setting": "[4]", "value": 30, "unit": "nM"}, {"measurement": "EC50", "setting": "[5]", "value": 4200, "unit": "nM"}, {"measurement": "IC50", "setting": "[9]", "value": 610, "unit": "nM"}, {"measurement": "IC50", "setting": "[7]", "value": 120, "unit": "nM"}, {"measurement": "IC50", "setting": "[8]", "value": 3100, "unit": "nM"}, {"measurement": "EC50", "setting": "Norwalk virus", "value": 4200, "unit": "nM"}]}, {"smiles": "CCOP(=O)(OCC)C(O)[C@H](C[C@@H]1CCNC1=O)NC(=O)[C@H](CC(C)C)NC(=O)[C@H](Cc1cccc2ccccc12)NC(=O)OCc1ccccc1", "note": "(stereo partly specified)", "values": [{"measurement": "EC50", "setting": "Norwalk virus", "value": 100, "unit": "nM"}]}, {"smiles": "CC(C)C[C@H](NC(=O)[C@H](Cc1ccccc1)NC(=O)OCc1ccccc1)C(=O)N[C@H](C=O)C[C@@H]1CCNC1=O", "values": [{"measurement": "EC50", "setting": "Norwalk virus", "value": 60, "unit": "nM"}]}, {"smiles": "CC(C)C[C@H](NC(=O)[C@@H](Cc1cccc2ccccc12)NC(=O)OCc1ccccc1)C(=O)N[C@H](C=O)C[C@@H]1CCNC1=O", "values": [{"measurement": "EC50", "setting": "Norwalk virus", "value": 450, "unit": "nM"}]}, {"smiles": "CC(C)C[C@H](NC(=O)[C@H](Cc1cccc2ccccc12)NC(=O)OCc1ccccc1)C(=O)N[C@@H](C[C@@H]1CCNC1=O)C(O)S(=O)(=O)O", "note": "(stereo partly specified)", "values": [{"measurement": "EC50", "setting": "Norwalk virus", "value": 40, "unit": "nM"}]}]}
